We go through 11 molecules from patent US20060122181A1, “Heteroaromatic pentacyclic compound and medicinal use thereof” (Japan Tobacco Inc., priority 2003, published 2006).

Molecules are shown by their SMILES. Where a name gives a salt, the structure may show the parent alone.

In general, melting point refers to the temperature of the solid-liquid transition. The IC50 is the concentration that gives 50% inhibition.

The first data set deals with female ob/ob mice. In words: Effect of concomitant use with voglibose on hypoglycemic activity (sucrose loading). Type of data set: in vivo. As to conditions: voglibose 0.3 mg/kg oral alone, after sucrose loading 2 g/kg, relative to control. Here is the method: (§1) To 9-week-old female ob/ob mice grouped according to glucose level were orally administered a 0.5% methyl cellulose suspension of the test compound {note: Example 4-2 (1 mg/kg)} (test compound-administered group), a 0.5% methyl cellulose suspension of voglibose (0.3 mg/kg) (voglibose-administered group), simultaneously both a 0.5% methyl cellulose suspension of the test compound and a 0.5% methyl cellulose suspension (voglibose 0.3 mg/kg) (test compound and voglibose concomitant use group), or a 0.5% methyl cellulose solution alone (control group). One hour later, sucrose (2 g/5 mL/kg) was loaded.
Blood was drawn under fasting condition, which condition was started simultaneously with the loading by means of removing the feed. The blood was drawn under anesthesia from the orbital vein 1 and 2 hours after the sucrose loading. The blood thus taken was centrifuged and the glucose level was measured from the obtained plasma by the hexokinase method (glucose kit). For evaluation, the percentage (%) of decrease in the glucose level of each group other than the control group relative to the control group is shown.
As for `OCC(CO)N[C@H]1C[C@](O)(CO)[C@@H](O)[C@H](O)[C@H]1O` [Voglibose, voglibose, reference compound], the “blood glucose decreasing rate (%) 1 hour later” value is recorded as 35% and the “blood glucose decreasing rate (%) 2 hours later” value is given as 38%.

The subject of another data set is male ob/ob mice. In words: Hypoglycemic activity in ob/ob mice. As to conditions: dose 1 mg/kg oral, fasting, relative to control group. Format: in vivo. Here is the method: A 0.5% methyl cellulose suspension of the test compound was orally administered to 6- to 9-week-old male ob/ob mice grouped according to the glucose level. Only a 0.5% methyl cellulose solution was administered to a control group.
Blood was drawn under fasting condition, which condition was started simultaneously with the administration by means of removing the feed. The blood was drawn under anesthesia from the orbital vein 3 hours after the administration. The blood thus taken was centrifuged and the glucose level was measured from the obtained plasma by the hexokinase method (glucose measurement kit). For evaluation, the percentage (%) of decrease in the glucose level of the test compound-administered group relative to the control group is shown.
With `CCCC(CCC)c1ccc(CN(C)c2ccc(-c3csc([C@@H]4Cc5ccccc5CN4CC(=O)[O-])n3)cc2)cc1.[Na+]` [Example 3-64], the “blood glucose decreasing rate (%) 3 hours later” value is recorded as 13%.

Take `CCCC(CCC)c1ccc(CN(C)c2ccc(-c3csc(CN4Cc5ccccc5CC4C(=O)O)n3)cc2)cc1` (stereo not drawn) [Example 3-73]: the “blood glucose decreasing rate (%) 3 hours later” value is 14%.

`CN(Cc1ccc(C2CCCCC2)cc1)c1ccc(-c2csc(CNC(Cc3ccccc3)C(=O)O)n2)cc1` (stereo not drawn) [Example 3-76]: the “blood glucose decreasing rate (%) 3 hours later” value was found to be 33%.

On to `CCCC(CCC)c1ccc(CN(C)c2ccc(-c3csc(CN(C)[C@@H](Cc4ccccc4)C(=O)O)n3)cc2)cc1` [Example 3-86], for which the “blood glucose decreasing rate (%) 3 hours later” value was 16%.

For `CC(C)CCN(CC(=O)O)Cc1nc(-c2ccc(N(C)Cc3ccc([C@H]4CC[C@H](C)CC4)cc3)cc2)cs1` [Example 3-92], the “blood glucose decreasing rate (%) 3 hours later” value was 26%.

Still in this data set, the particulars now being: dose 3 mg/kg oral, fasting, relative to control group.
On to `CN(Cc1ccc(C2CCCCC2)cc1)c1ccc(-c2csc(CN3CCC(C(=O)O)(c4ccccc4)CC3)n2)cc1` [Example 3-67], for which the “blood glucose decreasing rate (%) 3 hours later” value was 20%.

With `CN(Cc1ccc(C2CCC(C)(C)CC2)cc1)c1ccc(-c2csc(CN(C)S(=O)(=O)c3ccc(C(=O)O)cc3)n2)cc1` [Example 3-98], the “blood glucose decreasing rate (%) 3 hours later” value is 31%.

For the molecule `CN(Cc1ccc(C2CCCCC2)cc1)c1ccc(-c2csc(CN(C)S(=O)(=O)c3ccc(C(=O)O)cc3)n2)cc1` [Example 3-100], the “blood glucose decreasing rate (%) 3 hours later” value is recorded as 20%.

Tested on in the next data set: not given
Assay: not given
Conditions: not given
Consider `CCCC(CCC)c1ccc(CN(C)c2ccc(-c3csc([C@@H]4Cc5ccccc5CN4CC(=O)[O-])n3)cc2)cc1.[Na+]` [Example 3-64], for which the melting point was in the range of 186 to 187 °C.

In the case of `CN(Cc1ccc(C2CCCCC2)cc1)c1ccc(-c2csc(CN3CCC(C(=O)O)(c4ccccc4)CC3)n2)cc1` [Example 3-67], the melting point was 220 to 222 °C.

Turning to `CCCC(CCC)c1ccc(CN(C)c2ccc(-c3csc(CN4Cc5ccccc5CC4C(=O)O)n3)cc2)cc1` (stereo not drawn) [Example 3-73], the melting point is 176 to 179 °C.

For `CN(Cc1ccc(C2CCCCC2)cc1)c1ccc(-c2csc(CNC(Cc3ccccc3)C(=O)O)n2)cc1` (stereo not drawn) [Example 3-76], the melting point is 185 to 190 °C.

Consider `CCCC(CCC)c1ccc(CN(C)c2ccc(-c3csc(CN(C)[C@@H](Cc4ccccc4)C(=O)O)n3)cc2)cc1` [Example 3-86], for which the melting point turned out to be 143 °C.

`CC(C)CCN(CC(=O)O)Cc1nc(-c2ccc(N(C)Cc3ccc([C@H]4CC[C@H](C)CC4)cc3)cc2)cs1` [Example 3-92] had a melting point of 166 to 167 °C.

On to `CN(Cc1ccc(C2CCC(C)(C)CC2)cc1)c1ccc(-c2csc(CN(C)S(=O)(=O)c3ccc(C(=O)O)cc3)n2)cc1` [Example 3-98], for which the melting point was in the range of 218 to 221 °C.

The molecule `CN(Cc1ccc(C2CCCCC2)cc1)c1ccc(-c2csc(CN(C)S(=O)(=O)c3ccc(C(=O)O)cc3)n2)cc1` [Example 3-100] displayed a melting point of 193 to 196 °C.

Another data set concerns female ob/ob mice. As to the kind of experiment: Effect of concomitant use with metformin hydrochloride on hypoglycemic activity. As to conditions: metformin chloride 30 mg/kg oral alone, ob/ob mice, relative to control. Type of data set: in vivo. On the procedure:
as §1, with “10-week-old” for “9-week-old”, “metformin chloride (30” for “voglibose (0.3”, “(metformin-administered” for “(voglibose-administered”, “(metformin chloride 30” for “(voglibose 0.3”, “metformin” for “voglibose”, “The ob/ob mice were fasted for 3 hours before administration.” for “One hour later, sucrose (2 g/5 mL/kg) was loaded.”
Blood was drawn under fasting condition, which condition was started simultaneously with the administration by means of removing the feed. The blood was drawn under anesthesia from the orbital vein 3 and 5 hours after the administration. The blood thus taken was centrifuged and the glucose level was measured from the obtained plasma by the hexokinase method (glucose kit). For evaluation, the percentage (%) of decrease in the glucose level of each group other than the control group relative to the control group is shown.
As to `CN(C)C(=N)N=C(N)N` [Metformin, metformin hydrochloride, reference compound], the “blood glucose decreasing rate (%) 3 hours later” value was found to be 17% and the “blood glucose decreasing rate (%) 5 hours later” value came to 39%.

For another data set, the target named is T1, Recombinant human protein tyrosine phosphatase 1B (Homo sapiens, UniProt P18031).
T1 construct: purchased UBI
T1 sequence (P18031 1-435): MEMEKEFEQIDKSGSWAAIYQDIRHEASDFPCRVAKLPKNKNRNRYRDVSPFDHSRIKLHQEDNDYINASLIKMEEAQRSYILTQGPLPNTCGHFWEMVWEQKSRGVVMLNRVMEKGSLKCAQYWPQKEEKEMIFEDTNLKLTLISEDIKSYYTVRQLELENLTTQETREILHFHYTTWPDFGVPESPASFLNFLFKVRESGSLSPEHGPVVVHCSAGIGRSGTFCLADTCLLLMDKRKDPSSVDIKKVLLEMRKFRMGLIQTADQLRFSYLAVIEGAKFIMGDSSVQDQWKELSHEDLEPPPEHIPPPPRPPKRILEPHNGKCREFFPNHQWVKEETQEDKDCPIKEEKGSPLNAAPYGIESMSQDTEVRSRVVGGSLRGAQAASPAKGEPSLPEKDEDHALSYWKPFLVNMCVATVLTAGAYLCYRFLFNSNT
As to the kind of experiment: Protein tyrosine phosphatase 1B inhibitory activity (malachite green, phosphorylated insulin receptor peptide substrate). Type of data set: biochemical. The settings on record: recombinant human PTP1B, 60 min room temperature, absorbance 650 nm.
Consider `CCCC(CCC)c1ccc(CN(C)c2ccc(-c3csc([C@@H]4Cc5ccccc5CN4CC(=O)[O-])n3)cc2)cc1.[Na+]` [Example 3-64], for which the 50% inhibitory concentration (IC50) was 0.21 µM.

Turning to `CN(Cc1ccc(C2CCCCC2)cc1)c1ccc(-c2csc(CN3CCC(C(=O)O)(c4ccccc4)CC3)n2)cc1` [Example 3-67], the IC50 came to 0.23 µM.

Take `CCCC(CCC)c1ccc(CN(C)c2ccc(-c3csc(CN4Cc5ccccc5CC4C(=O)O)n3)cc2)cc1` (stereo not drawn) [Example 3-73]: the IC50 came out at 0.2 µM.

Take `CN(Cc1ccc(C2CCCCC2)cc1)c1ccc(-c2csc(CNC(Cc3ccccc3)C(=O)O)n2)cc1` (stereo not drawn) [Example 3-76]: the IC50 turned out to be 0.48 µM.

`CCCC(CCC)c1ccc(CN(C)c2ccc(-c3csc(CN(C)[C@@H](Cc4ccccc4)C(=O)O)n3)cc2)cc1` [Example 3-86]: the IC50 turned out to be 0.2 µM.

As for `CC(C)CCN(CC(=O)O)Cc1nc(-c2ccc(N(C)Cc3ccc([C@H]4CC[C@H](C)CC4)cc3)cc2)cs1` [Example 3-92], the IC50 worked out at 0.18 µM.

With `CN(Cc1ccc(C2CCC(C)(C)CC2)cc1)c1ccc(-c2csc(CN(C)S(=O)(=O)c3ccc(C(=O)O)cc3)n2)cc1` [Example 3-98], the IC50 was 0.16 µM.

Take `CN(Cc1ccc(C2CCCCC2)cc1)c1ccc(-c2csc(CN(C)S(=O)(=O)c3ccc(C(=O)O)cc3)n2)cc1` [Example 3-100]: the IC50 is 0.15 µM.

The test system of another data set is female ob/ob mice. In words: Effect of concomitant use with glibenclamide on hypoglycemic activity. Format: in vivo. The settings on record: glibenclamide 3 mg/kg oral alone, relative to control. Here is the method: To 10-week-old female ob/ob mice grouped according to glucose level were orally administered a 0.5% methyl cellulose suspension of the test compound {note: Example 4-2 (1 mg/kg)} (test compound-administered group), a 0.5% methyl cellulose suspension of glibenclamide (3 mg/kg) (glibenclamide-administered group), simultaneously both a 0.5% methyl cellulose suspension of the test compound and a 0.5% methyl cellulose suspension (glibenclamide 3 mg/kg) (test compound and glibenclamide concomitant use group), or a 0.5% methyl cellulose solution alone (control group).
Blood was drawn under fasting condition, which condition was started simultaneously with the administration by means of removing the feed. […] The blood thus taken was centrifuged and the glucose level was measured from the obtained plasma by the hexokinase method (glucose kit). For evaluation, the percentage (%) of decrease in the glucose level of each group other than the control group relative to the control group is shown.
As to `COc1ccc(Cl)cc1C(=O)NCCc1ccc(S(=O)(=O)NC(=O)NC2CCCCC2)cc1` [Glibenclamide, glibenclamide, reference compound], the “blood glucose decreasing rate (%) 3 hours later” value is listed as 44% and the “blood glucose decreasing rate (%) 15 hours later” value is on record as 40%.
